Source: ChEMBL document CHEMBL3507680, “University of Dundee, Gates Library screen for HepG2 cell viability”

Assay: Human HepG2 cell viability assay in 384 well format
Type: toxicity, cell-based
Design: dose 125 nL, time 70.5 hour; concentration not given beside the values
Settings: HepG2 cells, read-out: Inhibition

Row | Structure (SMILES) | cytotoxicity at 70.5 h [%]
1 | Cc1nc(C)n(CC2CCCN2CC(=O)Nc2c(C)n[nH]c2C)n1 (configuration not stated) | -1.18
2 | COCc1ccccc1CNC(=O)CN1CCCC1c1noc(C)n1 (configuration not stated) | -2.27
3 | Cc1cccc(OCCNC(=O)CN2CCCC2c2noc(C)n2)c1 (configuration not stated) | -4.91
4 | Cn1cc(Cl)cc1C(=O)N1CCN(Cc2cccs2)CC1 | -12.6
5 | Cc1oc(C)c(C(=O)NCc2cccnc2)c1C | -14.1
6 | Cc1oc(C)c(C(=O)NCc2ccccc2CN(C)C)c1C | 16.8
7 | Cc1ccc(C(=O)NCCCNc2ccc(C(F)(F)F)cn2)cc1 | -9.05
8 | O=C(NCCCNc1ccc(C(F)(F)F)cn1)c1ccccc1 | -8.08
9 | Nc1nccnc1C(=O)NCCCNc1ccc(C(F)(F)F)cn1 | 2.59
10 | CN(C)c1ccc(C(=O)NCCCNc2ccc(C(F)(F)F)cn2)cc1 | -13
11 | CC(C)C(=O)NCCNC(=O)CCOc1cccc(F)c1 | -11.3
12 | CCOc1ncccc1CNC(=O)c1c(C)oc(C)c1C | -9.43
13 | CCCc1nnc(NC(=O)Cc2c(C)nc(C)[nH]c2=O)s1 | -6.43
14 | Cc1cc(NC(=O)NCC(O)c2ccc(F)c(F)c2)n(C)n1 (configuration not stated) | 13.9
15 | Cc1ccc(C(O)CNC(=O)Nc2cc(C)nn2C)cc1 (configuration not stated) | -3.09
16 | COc1ccc(OC)c(C(O)CNC(=O)Nc2cc(C)nn2C)c1 (configuration not stated) | -7.8
17 | CC(Cn1ccnc1)NC(=O)NCc1ccccn1 (configuration not stated) | -15.6
18 | Cc1noc2ncc(C(=O)NCC3CCCOC3)cc12 (configuration not stated) | -8.17
19 | Cc1cc(C)c(CNC(=O)C2CCN(c3cnccn3)CC2)c(=O)[nH]1 | -3.48
20 | CCn1ccnc1CN1CCN(CCC(=O)NC2CCCCC2)CC1 | -6.92
21 | CCC(C)NC(=O)CCNC(=O)Nc1ccc(-n2cncn2)c(F)c1 (configuration not stated) | -10.1
22 | O=C(CC1C=CCC1)Nc1ncn(CC(=O)N2CCCCCC2)n1 (configuration not stated) | -13.4
23 | Cc1cc(C)n(CCC(=O)N2CCC(Nc3cccnn3)CC2)n1 | -12.8
24 | CCCNC(=O)NC(=O)CN1CCN(Cc2nccn2CC)CC1 | -9.22

Row | Structure (SMILES) | cytotoxicity at 70.5 h [%]
25 | CN(C(=O)Nc1ccncc1)C1CCN(c2ccccc2)C1=O (configuration not stated) | -11.8
26 | CN(Cc1csc(-c2cnn(C)c2)n1)CC1CCN(CCO)CC1 | 18.5
27 | c1ccc(-c2nc(CNCC3CCCN3c3cccnn3)co2)cc1 (configuration not stated) | 12.4
28 | Cc1nc(C)n(C2CCCN(C(=O)c3cn4c(C)cccc4n3)C2)n1 (configuration not stated) | 19.8
29 | CCSc1ccc(NC(=O)N2CCCC2c2ccncc2)cn1 (configuration not stated) | -8.21
30 | O=C(CN1CCOC(Cn2cccn2)C1)Nc1ccncc1 (configuration not stated) | -3.63
31 | Cc1nc2ccccc2nc1CN1CCCC1Cn1cccn1 (configuration not stated) | 20.6
32 | Cc1nc(CN2CCCC(N(C)CC(=O)Nc3cccnc3)C2)no1 (configuration not stated) | 15.1
33 | CC(C)c1nc(CN2CCC(CO)CC2)cs1 | 34.5
34 | CCCN1CCN(C(=O)Cc2nc(-c3ccco3)oc2C)CC1 | -7.9
35 | Cc1nc(CN2CCCC(N(C)Cc3nc(CC(C)C)no3)C2)no1 (configuration not stated) | -9.14
36 | Cc1nc(CN(C)C2CCN(Cc3c(C)noc3C)C2)no1 (configuration not stated) | -8.91
37 | CN(Cc1cccc(F)c1)C(=O)CS(=O)(=O)Cc1ccc(Cl)c(Cl)c1 | -11.2
38 | Cc1csc(CNC(=O)NCc2ccc3c(c2)OCCO3)n1 | -14.3
39 | Cc1csc(CNC(=O)N(C)Cc2ccc3c(c2)OCO3)n1 | -9.49
40 | CCOc1ccc(CC(CNC(=O)c2ccoc2C)C(N)=O)cc1 (configuration not stated) | -10.1
41 | Cc1cccc(CS(=O)(=O)CC(=O)N(C)Cc2ccccc2F)c1 | -6.9
42 | CC(C)c1nccn1C1CCCN(C(=O)c2ccc3[nH]cnc3c2)C1 (configuration not stated) | 8.82
43 | CCCc1ccc(C(=O)N2CCn3c(nnc3C(C)C)C2)cc1 | -5.86
44 | O=C(Nc1cc(F)ccc1OCC1CCCO1)c1ccoc1 (configuration not stated) | -2.66
45 | COCCn1cc(C(=O)N2CCCC(n3cncn3)C2)ccc1=O (configuration not stated) | 8.17
46 | O=C(Nc1ccccc1OCC1CCCCO1)c1ccc(O)nc1 (configuration not stated) | -13
47 | COCc1nc(CN2CCOC(CN(C)c3cccnn3)C2)cs1 (configuration not stated) | 2.04
48 | COc1ccc(-c2noc(CN3CC(n4cccn4)C3)n2)c(OC)c1 | -7.32

Row | Structure (SMILES) | cytotoxicity at 70.5 h [%]
49 | Cc1nc(C)c(CN2CCOC(CN(C)c3cccnn3)C2)s1 (configuration not stated) | -8.03
50 | CCc1nnsc1C(=O)N1CCCN(Cc2ccc(F)cc2)CC1 | -9.04
51 | CCc1nnsc1C(=O)N1CCCN(Cc2cnn(CC)c2)CC1 | -7.53
52 | O=C(Cc1ccc2c(c1)OCCO2)N1CCCC(n2cncn2)C1 (configuration not stated) | -9.12
53 | CCc1nc(C)c(C(=O)N2CCCN(Cc3cnn(C)c3)CC2)s1 | -9
54 | Cc1nc(C2CCCN2Cc2nnc(Cc3ccccc3)o2)no1 (configuration not stated) | 2.42
55 | Cc1nnc(N2CCC(CCN(C)C)CC2)c(C#N)c1C | -11.2
56 | CC(C)C(=O)NCc1ccc(-n2cncn2)nc1 | -4.44
57 | CCc1nnsc1C(=O)N1CCCN(Cc2ccc(C)cc2)CC1 | -8.18
58 | CCCS(=O)(=O)NC1CCN(c2nnc(C)c(C)c2C#N)CC1 | -6.18
59 | CC(=O)Nc1nc(C(=O)NC(C)c2cccnc2)cs1 (configuration not stated) | -6.5
60 | Cc1cc(CN(C)C(=O)NCC2CCS(=O)(=O)C2)no1 (configuration not stated) | -9.21
61 | CS(=O)(=O)c1ccc(CNC(=O)NCC2CCOC2)cc1 (configuration not stated) | 4.53
62 | CCC(C)C(=O)NCc1ccc(-n2cncn2)nc1 (configuration not stated) | -6.68
63 | CCC(C)C(=O)NCc1cccc(N2CCCCC2=O)c1 (configuration not stated) | -4.37
64 | CC(C(=O)NCc1cccc(N2CCCC2=O)c1)S(C)(=O)=O (configuration not stated) | 0.0426
65 | O=C(CCc1ccc2c(c1)OCO2)N1CCCC(n2cccn2)C1 (configuration not stated) | 13.3
66 | CCOc1ccccc1-c1noc(CN2CCOC(CN(C)C)C2)n1 (configuration not stated) | -10.8
67 | Cc1nnc(N2CCCC(CS(N)(=O)=O)C2)c(C#N)c1C (configuration not stated) | -2.95
68 | CCCOCC(=O)N1CCCN(Cc2csc(CC)n2)CC1 | 6.02
69 | Cc1ccccc1CCNC(=O)N1CCCC(c2nncn2C)C1 (configuration not stated) | -9.14
70 | Cc1ccc(C)c(NC(=O)C(C)N2CCCN(c3nccs3)CC2)c1 (configuration not stated) | -6.54
71 | CCn1cnnc1C1CCN(C(=O)COc2ccc(Cl)cc2)CC1 | -9.99
72 | CCc1nc(CN2CCN(C(=O)c3cc(C)no3)CC2)cs1 | -8.13

Row | Structure (SMILES) | cytotoxicity at 70.5 h [%]
73 | CCc1noc(C)c1C(=O)N1CCCN(Cc2csc(C)n2)CC1 | -9.45
74 | CCc1nc(CN2CCCN(C(=O)c3cn[nH]c3C)CC2)cs1 | -6.19
75 | CCOCC(O)CN1CCN(C(=O)c2cccc3[nH]ncc23)CC1 (configuration not stated) | -4.87
76 | CCc1nc(CN2CCCN(C(=O)COC)CC2)cs1 | -6.47
77 | COc1ccc(Cl)cc1C(=O)N(C)Cc1cc(C)on1 | -3.26
78 | CC(C)c1cc(C(=O)NCCn2nc3ccccn3c2=O)n[nH]1 | -4.09
79 | CC(C)Cc1cc(C(=O)NCCn2nc3ccccn3c2=O)[nH]n1 | -3.87
80 | CCN(Cc1nc2c(cnn2C)c(=O)[nH]1)Cc1ccccc1C | 1.06
81 | CC(C)(O)CN1CCN(C(=O)c2cccc3[nH]ncc23)CC1 | -1.27
82 | Cc1nc(CC(=O)N2CCC(Nc3cccnn3)CC2)cs1 | -6.73
83 | O=C(CN1CCN(c2ccc3nncn3n2)CC1)NC1CCCCC1 | -11.1
84 | Cc1noc(C(C)N2CCN(Cc3cccc(C#N)c3)CC2)n1 (configuration not stated) | -5.03
85 | CC(C)c1noc(C(C)N2CCN(Cc3cccc(C#N)c3)CC2)n1 (configuration not stated) | -11
86 | CCn1nc2c(cc1=O)CN(Cc1nnc(C3CC3)o1)CC2 | 2.46
87 | c1coc(-c2nc(CN3CCn4c(nnc4C4CC4)C3)cs2)c1 | -8.26
88 | Cn1nc2c(cc1=O)CN(Cc1nc(C3CC3)no1)CC2 | -8.63
89 | CCCOc1cccc(NS(=O)(=O)c2cc(C(=O)O)cs2)c1 | 4.51
90 | COc1c(C2CCCN2Cc2csc(C(C)C)n2)c(C)nn1C (configuration not stated) | 41
91 | Cc1nc(CN2CCCC(NCc3c(C)nc4sccn34)C2)no1 (configuration not stated) | 1.63
92 | N#Cc1cccc(S(=O)(=O)NC(=O)COC2CCCC2)c1 | 11.3
93 | CC(C)(C)c1nc(CN2CCCC2Cn2cccn2)no1 (configuration not stated) | 12.2
94 | CNS(=O)(=O)Cc1ccc(CNC(=O)c2cccc(C)n2)cc1 | -1.09
95 | COc1cc(CNC(=O)c2c(C)noc2C(C)C)ccn1 | -2.32
96 | Cc1noc(C(C)C)c1C(=O)NCc1cccc(N(C)C)c1 | 12.6

Row | Structure (SMILES) | cytotoxicity at 70.5 h [%]
97 | Cc1cccnc1NC(=O)NCc1ccc(N2CCNC(=O)C2)cc1 | -10.1
98 | COc1cccc(S(=O)(=O)NC(=O)COC2CCCC2)c1 | -3.13
99 | COc1ccccc1CC1CCCN(CC(=O)N2CCOCC2)C1 (configuration not stated) | -6.05
100 | CCc1nnsc1C(=O)N1CCCN(Cc2nccn2C)CC1 | -21.7
101 | CCc1nnsc1C(=O)N1CCCN(Cc2cnn(C)c2)CC1 | -27.3
102 | CN(Cc1ncc(-c2ccccc2)o1)CC1CCCN1c1cccnn1 (configuration not stated) | -10.2
103 | Cc1nc(C)n(CC2CCCCN2CC(=O)N(C)Cc2ccco2)n1 (configuration not stated) | -1.35
104 | CCc1nc(CN2CCCN(C(=O)c3cn[nH]c3CC)CC2)cs1 | 12.4
105 | Cc1n[nH]c(=O)c2c(NC(=O)CN3CCC(O)CC3)oc(C)c12 | 7.13
106 | Cc1ccc(NC(=O)C(C)N2CCCN(c3nccs3)CC2)c(C)c1 (configuration not stated) | -7.1
107 | Cc1ccccc1CN(C)Cc1nc2c(cnn2C)c(=O)[nH]1 | -7.81
108 | O=C(NCCn1nc2ccccn2c1=O)c1cccc2[nH]ncc12 | -16.6
109 | CN(Cc1nc2c(cnn2C)c(=O)[nH]1)Cc1ccc(F)cc1F | -10.6
110 | Cc1ccc2cc(C(=O)NCCn3nc4ccccn4c3=O)[nH]c2c1 | 8.99
111 | CC(C(=O)Nc1ncccn1)N1CCCN(c2nccs2)CC1 (configuration not stated) | -13.8
112 | COc1ccc(F)cc1C(=O)N(C)Cc1cc(C)on1 | -15.7
113 | CCc1nnc2n1CCN(Cc1csc(-c3ccc(C)o3)n1)C2 | -33.2
114 | CC(C)(C)C(O)CN1CCN(C(=O)c2cccc3[nH]ncc23)CC1 (configuration not stated) | -3.16
115 | CCc1nc(CN2CCCN(C(=O)CCSC)CC2)cs1 | -15.8
116 | COCc1cccc(NS(=O)(=O)c2cc(C(=O)O)cs2)c1 | -12.7
117 | COc1ccccc1OCCNCc1c(C)nn(C)c1N(C)C | -3.32
